This is an account of results in ChEMBL document CHEMBL3774391, “Novel nicotine analogues with potential anti-mycobacterial activity” (Bioorg Med Chem, 2016).

The structures appear in SMILES notation. ≈ marks a conversion by molar mass, not a printed value. Calls of active or inactive are those of the source. Some results are limits rather than exact numbers.

The subject of data set [1] is Mycobacterium tuberculosis. As to the kind of experiment: Antimycobacterial activity against Mycobacterium tuberculosis H37Rv […] assessed as confluent growth at 200 ug/ml after 28 days by Lowenstein-Jensen method. It counts as functional, organism-based.
Data set [2] relates to Mycobacterium tuberculosis. As to the kind of experiment: Antimycobacterial activity against Mycobacterium tuberculosis clinical isolate assessed as growth inhibition after 28 days. It counts as functional, organism-based.
In data set [3] the target is Neuronal acetylcholine receptor; alpha4/beta2 (Homo sapiens) (UniProt P17787+P43681). As to the kind of experiment: Displacement of [3H]cytisine from human recombinant alpha4beta2 nACh receptor expressed in human SH-SY5Y cells at 1 X 10^-8 M to 1 X 10^-7 M. In kind it is cell-based. On the technique in general: In a radioligand displacement assay an active substance lowers the binding of a labelled ligand.

The subject of data set [4] is Mycobacterium tuberculosis. As to the kind of experiment: Antimycobacterial activity against Mycobacterium tuberculosis H37Rv […] assessed as confluent growth at 50 ug/ml after 28 days by Lowenstein-Jensen method. It counts as functional, organism-based.
Data set [5] concerns Mycobacterium tuberculosis. As to the kind of experiment: Antimycobacterial activity against Mycobacterium tuberculosis clinical isolate assessed as growth inhibition after 5 days by microplate Alamar blue assay. The note with it: 120 h. In kind it is functional. (In general: Alamar Blue is a resazurin reagent that responds to reducing activity.)
For data set [6], the system named is Mycobacterium tuberculosis. As to the kind of experiment: Antimycobacterial activity against Mycobacterium tuberculosis H37Rv […] assessed as bacterial colonies at 50 ug/ml after 28 days by Lowenstein-Jensen method. It counts as functional.
Data set [7] deals with Mycobacterium tuberculosis. As to the kind of experiment: Antimycobacterial activity against Mycobacterium tuberculosis H37Rv […] assessed as bacterial colonies at 200 ug/ml after 28 days by Lowenstein-Jensen method. It counts as functional.
For data set [8], the system named is Mycobacterium tuberculosis. As to the kind of experiment: Antimycobacterial activity against Mycobacterium tuberculosis H37Rv […] assessed as growth inhibition at 40 ug/ml after 28 days by Lowenstein-Jensen method. In kind it is functional, organism-based.
Data set [9] concerns Mycobacterium tuberculosis. As to the kind of experiment: Antimycobacterial activity against Mycobacterium tuberculosis H37Rv […] assessed as growth inhibition at 0.2 ug/ml after 28 days by Lowenstein-Jensen method. In kind it is functional, organism-based.
Data set [10] can be described thus: Half life in Wistar rat at 5 mg/kg, po. The note with it: in vivo. It counts as ADME, organism-based.
Data set [11] can be described thus: Volume of distribution in Wistar rat at 5 mg/kg, iv. In kind it is ADME, organism-based. The note with it: in vivo.
Data set [12] has as its system Rattus norvegicus. As to the kind of experiment: Volume of distribution in Wistar rat at 5 mg/kg, po. In kind it is ADME, organism-based. The settings on record: in vivo.
Data set [13] is described as follows: Toxicity in Wistar rat administered qd via oral gavage with repeated dose for 28 days. It counts as organism-based. The settings on record: in vivo.
Data set [14] in a line: Acute toxicity in po dosed overnight fasted Wistar rat. The settings on record: in vivo. It counts as organism-based.
A short description of data set [15]: Half life in Wistar rat at 5 mg/kg, iv. The settings on record: in vivo. It counts as ADME, organism-based.
The nature of data set [16]: Cmax in Wistar rat at 5 mg/kg, iv. It counts as ADME, organism-based. Details: dose 5 mg/kg, route intravenous. The note with it: in vivo.
Data set [17] can be described thus: Cmax in Wistar rat at 5 mg/kg, po. In kind it is ADME, organism-based. Details: dose 5 mg/kg, route oral. The note with it: in vivo.
Data set [18] in a line: Tmax in Wistar rat at 5 mg/kg, iv. In kind it is ADME, organism-based. The settings on record: in vivo.
Data set [19] is described as follows: Tmax in Wistar rat at 5 mg/kg, po. In kind it is ADME, organism-based. The note with it: in vivo.
A short description of data set [20]: Half life in po dosed Wistar rat plasma.

A word on the inhibition: it is the drop in the measured response relative to a control, in per cent. Consider `CN1CCC(C(=O)c2cncc(C3CC3)c2)C1=O` (stereo not given), for which the “growth inhibition (GI)” value in data set [1] and in data set [4] was “inactive” in each case. Moreover, in data set [2], the outcome was inactive. The inhibition result in data set [3] was “inactive”.
Usually MIC stands for the smallest concentration in the dilution series that meets the test's criterion for growth inhibition. On to `CN1CCC(C(=O)c2cncc(-c3cccc(Cl)c3Cl)c2)C1=O` (stereo not given), for which the MIC in data set [5] amounted to 0.0093 µM (≈ 3.25 ng/mL).
Turning to `COc1ccccc1-c1cncc(C(=O)C2CCN(C)C2=O)c1` (stereo not given), the “growth inhibition (GI)” value in data set [1] and in data set [4] was “inactive” throughout. The outcome in data set [2] was inactive.
Regarding `CN1CCC(C(=O)c2cncc(-c3ccc(Cl)cc3)c2)C1=O` (stereo not given), the “growth inhibition (GI)” value in [1] and in data set [4] was “inactive” in each case. Further, the outcome in data set [2] was inactive.
As to `Cc1ccc(-c2cncc(C(=O)C3CCN(C)C3=O)c2)cc1` (stereo not given), the “growth inhibition (GI)” value in data set [1] and in [4] was “inactive” in each case. Moreover, in [2], the result was inactive.
As for `CC(=O)Oc1ccc(-c2cncc(C(=O)C3CCN(C)C3=O)c2)cc1` (stereo not given), the Activity in data set [6] and in data set [7] was above 100 throughout. The result in [2] was inactive. Besides, the inhibition result in data set [3] was “inactive”.
In the case of `CN1CCC(C(=O)c2cncc(-c3cccc(C=O)c3)c2)C1=O` (stereo not given), the “growth inhibition (GI)” value in [1] and in [4] was “inactive” each time. In addition, in [7], the Activity is reported as above 100. The outcome in data set [2] was inactive. In addition, the inhibition entry in data set [3] is “inactive”.
As for `CO[C@H]1/C=C/O[C@@]2(C)Oc3c(C)c(O)c4c(O)c(c(/C=N/N5CCN(C)CC5)c(O)c4c3C2=O)NC(=O)/C(C)=C\C=C\[C@H](C)[C@H](O)[C@@H](C)[C@@H](O)[C@@H](C)[C@H](OC(C)=O)[C@@H]1C`, in data set [8], the “growth inhibition (GI)” value was “Active”.
Regarding `Cc1ccccc1-c1cncc(C(=O)C2CCN(C)C2=O)c1` (stereo not given), the “growth inhibition (GI)” value in data set [1] and in data set [4] was “inactive” each time. Moreover, the outcome in data set [2] was inactive.
For `NNC(=O)c1ccncc1` [ISONIAZID], the MIC in [5] turned out to be 0.00145 µM (≈ 0.199 ng/mL). For the same compound, the “growth inhibition (GI)” value in data set [9] was “Active”.
Consider `CN1CCC(C(=O)c2cncc(-c3cccc([N+](=O)[O-])c3)c2)C1=O` (stereo not given), for which the Activity in data set [7] is reported as above 100. Further, the result in data set [2] was inactive. Further, the inhibition entry in [3] was “inactive”. The “growth inhibition (GI)” value in data set [4] is “inactive”.
Turning to `CN1CCC(C(=O)c2cncc(-c3ccccc3Cl)c2)C1=O` (stereo not given), the Activity in data set [7] is reported as above 100. Moreover, the outcome in [2] was inactive. Further, in data set [4], the “growth inhibition (GI)” value is “inactive”.
`CC(=O)c1cccc(-c2cncc(C(=O)C3CCN(C)C3=O)c2)c1` (stereo not given): the Activity in data set [7] is reported as above 100. The result in data set [2] was inactive. The “growth inhibition (GI)” value in data set [4] was “inactive”.
As for `CN1CCC(C(=O)c2cncc(-c3cccc(N)c3)c2)C1=O` (stereo not given), the “growth inhibition (GI)” value in data set [1] and in data set [4] was “inactive” in each case. In addition, the outcome in data set [2] was inactive.
On to `COc1ccc(-c2cncc(C(=O)C3CCN(C)C3=O)c2)cc1` (stereo not given), for which, in data set [7], the Activity is listed as above 100. The outcome in data set [2] was inactive. For the same compound, in [3], the inhibition entry is “inactive”. Besides, the “growth inhibition (GI)” value in data set [4] is “inactive”.
Regarding `CN1CCC(C(=O)c2cncc(-c3cccc(O)c3)c2)C1=O` (stereo not given), the “growth inhibition (GI)” value in [1] and in data set [4] was “inactive” in each case. For the same compound, in data set [2], the result was inactive. The inhibition result in data set [3] was “inactive”.
For orientation: half-life means the time needed for the level to fall by half in the phase considered. Lower therefore signals fast loss. As a reminder, the LD50 is the dose expected to kill half of the subjects tested. High values mean lower toxicity, low ones greater toxicity. As a reminder, the Cmax is the maximum level reached in the sampled fluid or tissue. The term Tmax denotes the time from dosing to the highest level. `CN1CCC(C(=O)c2cncc(-c3cc(Cl)cc(Cl)c3)c2)C1=O` (stereo not given): the half-life in data set [10] is above 24 h; in [15], 24 h. For the same compound, the Vd in data set [11] worked out at 23.2 L; in data set [12], 27.36 L. Moreover, the Activity in [6] and in data set [7] was above 100 each time. Also, in data set [13], the LD50 at 672 h was above 2000 mg/kg. This compound showed an LD50 in data set [14] above 2000 mg/kg. For the same compound, the result in [2] was inactive. In addition, the minimal inhibitory concentration (MIC) in data set [5] worked out at 0.0286 µM (≈ 10 ng/mL). The Cmax in [16] was 3370 ng/mL; in data set [17] it was 2860 ng/mL. Moreover, the time to peak (Tmax) in data set [18] stood at 3 min; in [19] it was 1 h. Besides, the inhibition entry in [3] is “inactive”.
In the case of `CCCCc1cncc(C(=O)C2CCN(C)C2=O)c1` (stereo not given), the “growth inhibition (GI)” value in data set [1] and in data set [4] was “inactive” in each case. For the same compound, the outcome in [2] was inactive. In data set [3], the inhibition result is “inactive”.
For the compound `CN1CCC(C(=O)c2cncc(-c3ccc(F)cc3)c2)C1=O` (stereo not given), the “growth inhibition (GI)” value in data set [1] and in data set [4] was “inactive” in each case. The outcome in [2] was inactive. Besides, the inhibition result in data set [3] is “inactive”.
Regarding `Cc1cccc(-c2cncc(C(=O)C3CCN(C)C3=O)c2)c1` (stereo not given), the Activity in data set [6] and in data set [7] was above 100 in each case. For the same compound, the result in data set [2] was inactive. Moreover, the inhibition in data set [3] was below 10%.
On to `CN1CCC(C(=O)c2cncc(-c3cc(Cl)ccc3Cl)c2)C1=O` (stereo not given), for which the MIC in data set [5] worked out at 0.286 µM (≈ 100 ng/mL).
`CC(=O)c1ccc(-c2cncc(C(=O)C3CCN(C)C3=O)c2)s1` (stereo not given): the “growth inhibition (GI)” value in data set [1] and in data set [4] was “inactive” in each case. Also, in data set [2], the result was inactive. In addition, the inhibition result in data set [3] was “inactive”.
For `CN1CCC[C@H]1c1cccnc1` [NICOTINE], in [20], the half-life is 2 h.
Turning to `CN1CCC(C(=O)c2cncc(-c3cccc(F)c3)c2)C1=O` (stereo not given), the “growth inhibition (GI)” value in data set [1] and in [4] was “inactive” each time. Moreover, the result in data set [2] was inactive.
Consider `CN1CCC(C(=O)c2cncc(-c3ccc4ccccc4c3)c2)C1=O` (stereo not given), for which the Activity in data set [7] is recorded as above 100. In addition, the result in [2] was inactive. Moreover, in [4], the “growth inhibition (GI)” value is “inactive”.
Consider `CN1CCC(C(=O)c2cncc(-c3ccc(Cl)c(Cl)c3)c2)C1=O` (stereo not given), for which, in data set [5], the MIC turned out to be 0.179 µM (≈ 62.5 ng/mL).
With `COc1cccc(-c2cncc(C(=O)C3CCN(C)C3=O)c2)c1` (stereo not given), the “growth inhibition (GI)” value in data set [1] and in [4] was “inactive” each time. Also, in data set [2], the result was inactive. In data set [3], the inhibition entry is “inactive”.
As to `CN1CCC(C(=O)c2cncc(-c3cccc4ccccc34)c2)C1=O` (stereo not given), the “growth inhibition (GI)” value in data set [1] and in data set [4] was “inactive” in each case. In data set [2], the result was inactive.
Regarding `CN1CCC(C(=O)c2cncc(-c3ccc(C=O)cc3)c2)C1=O` (stereo not given), the Activity in data set [7] is above 100. Also, the result in [2] was inactive. For the same compound, the “growth inhibition (GI)” value in [4] is “inactive”.
As for `CN1CCC(C(=O)c2cncc(-c3ccc(Cl)cc3Cl)c2)C1=O` (stereo not given), in data set [5], the MIC was 0.00286 µM (≈ 0.999 ng/mL).
Regarding `CN1CCC(C(=O)c2cncc(-c3ccccc3)c2)C1=O` (stereo not given), the “growth inhibition (GI)” value in data set [1] and in data set [4] was “inactive” throughout. For the same compound, in data set [2], the result was inactive. Besides, the inhibition in [3] is below 10%.
